In patent publication US6492426B1, “Use of 1-aminoindan derivatives for treatment of mania in bipolar mood disorder” (priority 1999, dated 2002):
Several values for one entry are separate records, joined by “and”; a condition that tells them apart may be missing. Equal entries are not always repeated.

Tested on: amphetamine-induced hyperactivity in rats
Assay: amphetamine-induced hyperactivity model of mania in rats (automated activity monitors)
Type: in vivo, Sprague Dawley rats
Procedure: Evaluation of possible anti-bipolar effects of compounds 1 to 4 was effected by an amphetamine-induced hyperactivity model of mania in rats. Each of the compounds was examined in a separate experiment and compared with a control group, treated with the same dose of amphetamine.
Twenty Sprague Dawley rats, weighing 200-250 g served for each of the four (4) experiments. Rats were housed in a colony room with constant temperature (22° C.), 12 h light/dark cycle and free access to food and water. Each experiment consisted of two groups (n=10 per group), one group was treated with the compound (1 to 4) and the other with vehicle solution. In experiments 1-4, the drugs were administered intraperitoneally (IP). All experimental procedures were conducted during the light phase of the light/dark cycle.
Amphetamine (0.5 mg/kg, sub-cutaneous (s.c.), diluted in de-ionized water) was injected into all rats (both groups of each experiment) immediately prior to behavioral testing. In experiments 1 to 4, compounds (R)-N-acetyl aminoindan (1); (S)-N-indanyl glycinamide HCl (2); (rac)-N-(2-aminoacetyl)-1-aminoindan HCl (3); and (S)-N-formyl aminoindan (4) were injected twice intraperitoneally (IP) at a dose of 75 mg/kg, 19 h and 3 h prior to behavioral testing in experiments. All compounds were suspended in a 5% methyl cellulose solution. The vehicle solution was administered to the control animals.
Immediately after amphetamine injection, rats were placed in automated activity monitors and their activity levels were scored every 10 minutes in the 30 minute time span for experiments 1 to 4. Activity scores included separate measurements of horizontal (locomotion) and of vertical (rearing) activity.
Repeated ANOVA measurements were used to examine the effects of compounds 1 to 4 on locomotor and on vertical activity. One factor measured the treatment of the rats using compounds 1 to 4 or the control vehicle; the repeated measure factor was time (three 10 minute intervals). Post hoc LSD (least significant difference) tests were used to determine whether significant differences occurred in different time periods, where relevant.

[1] = group mean n=10, 75 mg/kg IP twice, amphetamine 0.5 mg/kg s.c., cumulative to 20 min
[2] = group mean n=10, 75 mg/kg IP twice, amphetamine 0.5 mg/kg s.c., cumulative to 30 min
[3] = group mean n=10, 75 mg/kg IP twice, amphetamine 0.5 mg/kg s.c., first 10 min
[4] = group mean n=10, 75 mg/kg IP twice, amphetamine 0.5 mg/kg s.c., second 10 min interval
[5] = group mean n=10, 75 mg/kg IP twice, amphetamine 0.5 mg/kg s.c., third 10 min interval
[6] = individual rat, 75 mg/kg IP twice, amphetamine 0.5 mg/kg s.c., cumulative to 20 min
[7] = individual rat, 75 mg/kg IP twice, amphetamine 0.5 mg/kg s.c., cumulative to 30 min
[8] = individual rat, 75 mg/kg IP twice, amphetamine 0.5 mg/kg s.c., non cumulative, second 10 min interval
[9] = individual rat, 75 mg/kg IP twice, amphetamine 0.5 mg/kg s.c., non cumulative, third 10 min interval

O=CN[C@H]1CCc2ccccc21 [Compound 4, (S)-N-formyl aminoindan]
Effect on amphetamine-induced locomotor activity versus control (ANOVA) (75 mg/kg IP, 19 h and 3 h before testing, result in words): significantly reduced amphetamine-induced locomotor activity | Effect on activity levels of rats (summary) (75 mg/kg IP, amphetamine-treated rats, result in words): reduced the activity levels | Anti-manic potential from the tested model (conclusion) (based on the tested model and doses, result in words): show anti-manic potential | Locomotor activity, 20 min, mean [1]: 1035 counts | Vertical activity, 20 min, mean [1]: 24 counts | Locomotor activity, 30 min, mean [2]: 1523 counts | Vertical activity, 30 min, mean [2]: 35 counts | Locomotor activity, 10 min, mean [3]: 553 counts | Vertical activity, 10 min, mean [3]: 17 counts | Locomotor activity, 20-10 min, mean [4]: 482 counts | Vertical activity, 20-10 min, mean [4]: 7 counts | Locomotor activity, 30-20 min, mean [5]: 488 counts | Vertical activity, 30-20 min, mean [5]: 11 counts | Locomotor activity, 10 min (individual rat, 75 mg/kg IP twice, 19 h and 3 h before testing, amphetamine 0.5 mg/kg s.c., first 10 min): 453 counts and 589 counts and 482 counts and 508 counts and 596 counts and 558 counts and 481 counts and 551 counts and 691 counts and 619 counts | Locomotor activity, 20 min [6]: 919 counts and 1099 counts and 896 counts and 840 counts and 1179 counts and 1113 counts and 923 counts and 988 counts and 1306 counts and 1088 counts | Vertical activity, 20 min [6]: 10 counts and 40 counts and 21 counts and 7 counts and 30 counts and 17 counts and 27 counts and 4 counts and 37 counts and 43 counts | Locomotor activity, 30 min [7]: 1371 counts and 1632 counts and 1253 counts and 1031 counts and 1789 counts and 1730 counts and 1422 counts (2×) and 2061 counts and 1519 counts | Vertical activity, 30 min [7]: 15 counts and 55 counts and 26 counts and 7 counts and 30 counts and 31 counts and 38 counts and 14 counts and 83 counts and 46 counts | Vertical activity, 10 min (individual rat, 75 mg/kg IP twice, amphetamine 0.5 mg/kg s.c., first 10 min): 9 counts and 30 counts (2×) and 13 counts and 7 counts and 12 counts (2×) and 21 counts and 3 counts and 34 counts | Locomotor activity, 20-10 min [8]: 466 counts and 510 counts and 414 counts and 332 counts and 583 counts and 555 counts and 442 counts and 437 counts and 615 counts and 469 counts | Vertical activity, 20-10 min [8]: 1 counts (2×) and 10 counts and 8 counts and 0 counts and 18 counts and 5 counts and 6 counts and 3 counts and 13 counts | Locomotor activity, 30-20 min [9]: 452 counts and 533 counts and 357 counts and 191 counts and 610 counts and 617 counts and 499 counts and 434 counts and 755 counts and 431 counts | Vertical activity, 30-20 min [9]: 5 counts (2×) and 15 counts and 0 counts (2×) and 14 counts and 11 counts and 10 counts and 46 counts and 3 counts
